Data published in patent US12396985B2, “Composition for oral administration with controlled release properties comprising complex of clay minerals, method for preparing same, and method for controlling release properties” (Korea Institute of Geoscience and Mineral Resources, priority 2019, dated 2025).
In brackets after ≈: the same amount, converted by molar mass.

Columns and labels:
interleukin 6 (IL-6) = test: immunohistochemical IL-6 staining of large intestine, DSS ulcerative colitis mouse model; format: in vivo, C57BL/6 mice; conditions: DSS 2% mice, same dosing
Procedure: Animal tests were performed to confirm anti-inflammatory, anti-crypt cell damage, anti-ulcer, anti-edema, and anti-fibrosis effects of a vactosertib/bentonite complex using a mouse model of ulcerative colitis as one of inflammatory bowel diseases. C57BL/6 mice were selected as test animals, and in order to induce ulcerative colitis, a cycle in which an inflammation inducing substance, DSS was added in drinking water and supplied for 7 days, and then normal drinking water was supplied for 14 days was repeated. Such an inflammation inducing cycle was repeated 3 times to induce chronic inflammation, ulcer and fibrous conditions in the large intestine. […]
In order to observe an immunohistochemical change of a large intestine tissue, a tissue fixed to a 10% neutral buffer formalin solution was sliced, attached to a coating slide, and deparaffinized, and then stained, and IHC of reacting with antibodies IL-6 (Interleukin-6), α-SMA (α-smooth muscle actin), and TGF-β (transforming growth factor beta) on each slide was requested to an external institute (Notus) and the test was performed. In an individual-specific tissue slide, three constant zones were specified and imaged 100 times, a stained portion to the total area was measured, and a mean value was calculated (Zen 2.3 blue edition, Carl Zeiss, Germany). […]

[1] = partition coefficient (octanol/water); format: physicochemical
[2] = aqueous solubility of the compound of Chemical Formula 1; format: physicochemical
[3] = adsorption rate of vactosertib onto bentonite; format: physicochemical
Procedure: The adsorption rates of vactosertib and bentonite according to the pH of a solvent were evaluated. At this time, considering that the vactosertib was not dissolved in neutral, but stated to be dissolved in about 1 mg/mL from pH 3, a test was performed by setting a reaction pH to pH 1, pH 2, and pH 3. First, 10 mg/mL of the vactosertib was dissolved in a 0.1 N hydrochloric acid aqueous solution and diluted with a hydrochloric acid aqueous solution or a phosphate buffer solution (pH 1: 0.1 N hydrochloric acid aqueous solution, pH 2, pH 3: phosphate buffer solution) corresponding to each pH to adjust the concentration to 1 mg/mL. 1 mL of a corresponding drug solution, 8 mL of a reaction solution (that is, 0.1 N hydrochloric acid aqueous solution or phosphate buffer solution) corresponding to each pH, and 1 mL of a 5 mg/mL suspension in which bentonite was suspended in distilled water were mixed and left for 30 minutes to adsorb the drug onto the bentonite. Thereafter, a drug concentration of a supernatant obtained by centrifugation (3,000 rpm, 5 minutes) was analyzed. Through this, the drug amount adsorbed onto the bentonite was indirectly calculated as shown in Equation 1 by removing the remaining drug amount in the supernatant from the entirely applied drug (vactosertib) to calculate an adsorption rate. [formula] [formula] To this end, a sample was prepared in the same manner as in Test Example 1, and a complex was prepared by fixing a reaction concentration and a reaction pH of bentonite to 0.5 mg/mL and pH 1, respectively, and varying the concentration of the applied vactosertib from 0.01 mg/mL to 0.5 mg/mL. In addition, a difference in adsorption rate according to the concentration of vactosertib was measured. To this end, a sample was prepared in the same manner as in Test Example 1, and a complex was prepared by using a solvent of pH 1, setting a concentration ratio of vactosertib and bentonite to 1:5, and varying an absolute concentration (that is, actual concentration). In addition, a difference in adsorption rate according to an absolute concentration was measured.

[4] = tested on: ulcerative colitis mouse model induced with DSS; test: histopathological severity scores in ulcerative colitis mouse model induced with DSS; format: in vivo, C57BL/6 mice
Procedure: Animal tests were performed to confirm anti-inflammatory, anti-crypt cell damage, anti-ulcer, anti-edema, and anti-fibrosis effects of a vactosertib/bentonite complex using a mouse model of ulcerative colitis as one of inflammatory bowel diseases. C57BL/6 mice were selected as test animals, and in order to induce ulcerative colitis, a cycle in which an inflammation inducing substance, DSS was added in drinking water and supplied for 7 days, and then normal drinking water was supplied for 14 days was repeated. Such an inflammation inducing cycle was repeated 3 times to induce chronic inflammation, ulcer and fibrous conditions in the large intestine. To test animal groups except for control groups, from 3 weeks after a first inflammation inducing cycle was elapsed, bentonite, vactosertib, or a vactosertib/bentonite complex was administered twice a day (10 am, 4 pm), 5 days a week, and for total 6 weeks. The bentonite per 1 kg of converted mouse weight was administered with 106.8 mg, the vactosertib was administered with 20.0 mg, and the complex was administered with 126.8 mg. At this time, as the vactosertib/bentonite complex, the complex prepared in Test Example 5 was used. For each test group used in ulcerative colitis animal tests, inflammation inducing substances, test substances, doses of the test substances, and the number of test animals were shown in Table 7 below.
C57BL/6 mice used in the test were supplied from the Orient Bio Gapyeong Center (699-13, Mokdong-ri, Buk-yeon, Gapyeong-gun, Gyeonggi-do), and about 6-week-old during obtaining. For about 7 days after obtaining, the rats were quarantined and purified and then healthy animals were used for the test. When the induced material was administered, the test animals were about 8-week-old, and 52 mice were used. The test animals were bred in the 2nd floor of Clean Animal Room, Bioscience Research Institute, Research Institute of Medical Science at Inha University, and circulated in at least 10 times/hour and bred under conditions of a temperature of 22±4° C., relative humidity of 50±20%, and illuminance of 150 to 300 Lux of lighting on for 12 hours (lighting: 08:00 to 20:00). A radiation solid feed (FeedLab GMO Free Rodent Diet GF2005) for rodents was free-taken using a feeder and water sterilized by an ultraviolet-ray flowing water sterilizer and high-pressure vapor after reverse osmosis was free-taken using a polysulfonate-made drinking water bottle (300 ml).
In order to induce ulcerative colitis, 2% DSS was added in drinking water of mice and continuously supplied for first 7 days of every test cycle (3 weeks). The test substances were orally administered 2 times a day, 5 days a week, and for a total of 6 weeks at the same time of second DSS induction (FIG. 14). The test substance dose was administered in a liquid amount of 20 mL per kg by body weight converted for each individual based on the body weight. The administration was orally performed by putting a test substance in a syringe and injecting the test substance by connecting a feeding needle for rats.
In order to evaluate a treatment effect of test substances on ulcerative colitis, after the end of the test, the animal was anesthetized, opened, and bled and then a histopathological test was performed for each individual. Histopathological findings were subdivided and scored into severity changes of inflammation, crypt cell damage, ulcer, edema, and fibrosis as shown in Table 8 below. In addition, the four histopathological severity scores excluding fibrosis were summed to compare a positive control (G2) and test substance-administered groups (G3, G4, and […]).
Statistical analysis was performed using Graphpad Prism version 8.01, and a minimum unit of significance was set to p<0.05. Since all measured histopathological indexes were nonparametric data, the indexes were represented by a median, 25% to 75% values (in the box), and minimum-maximum values (both ends) in the graph (FIGS. 15 to 20). […]

[5] = DSS 2% mice, oral twice a day, 5 days a week, 6 weeks, bentonite 106.8, vactosertib 20.0, complex 126.8 mg/kg, 3 point scale

- partition coefficient (octanol/water) Log Do/w [1]: 3.31
- solubility ([2]; 25 °C, water, thermodynamic from solid, saturated aqueous solution at 25±3° C., pH 7.2): < 0.02 mg/mL
- pH of a saturated aqueous solution ([2]; 25±3° C.): 7.2
- solubility ([2]; aqueous solution, aqueous buffer, at pH 2.81): 25.1 mg/mL (≈ 62700 µM)
- solubility ([2]; aqueous solution, aqueous buffer, at pH 3): ~1 mg/mL (≈ 2500 µM)
- solubility ([2]; aqueous solution, aqueous buffer, in pH 4.9 or higher): ≤ 0.02 mg/mL
- Adsorption rate ([3]; vactosertib 0.01 mg/mL, bentonite 0.5 mg/mL, pH 1): 99.4 ± 0.1%
- Adsorption rate ([3]; vactosertib 0.025 mg/mL, bentonite 0.5 mg/mL, pH 1): 99.8 ± 0.0%
- Adsorption rate ([3]; vactosertib 0.05 mg/mL, bentonite 0.5 mg/mL, pH 1): 99.8 ± 0.1%
- Adsorption rate ([3]; vactosertib 0.1 mg/mL, bentonite 0.5 mg/mL, pH 1): 80.7 ± 1.0%
- Adsorption rate ([3]; vactosertib 0.1 mg/mL, bentonite 0.5 mg/mL, pH 2): 79.3 ± 1.0%
- Adsorption rate ([3]; vactosertib 0.1 mg/mL, bentonite 0.5 mg/mL, pH 3): 79.0 ± 0.8%
- Adsorption rate ([3]; vactosertib 0.15 mg/mL, bentonite 0.5 mg/mL, pH 1): 57.1 ± 1.5%
- Adsorption rate ([3]; vactosertib 0.2 mg/mL, bentonite 0.5 mg/mL, pH 1): 43.8 ± 0.5%
- Adsorption rate ([3]; vactosertib 0.3 mg/mL, bentonite 0.5 mg/mL, pH 1): 31.2 ± 1.2%
- Adsorption rate ([3]; vactosertib 0.4 mg/mL, bentonite 0.5 mg/mL, pH 1): 23.0 ± 0.8%
- Adsorption rate ([3]; vactosertib 0.5 mg/mL, bentonite 0.5 mg/mL, pH 1): 19.0 ± 0.9%
- Adsorption rate ([3]; vactosertib 1 mg/mL, bentonite 5 mg/mL, pH 1): 90.4 ± 0.2%
Compound: Cc1cccc(-c2[nH]c(CNc3ccccc3F)nc2-c2ccc3ncnn3c2)n1 [Vactosertib, N-((4-([1,2,4]triazolo[1,5-a]pyridine-6-yl)-5-(6-methylpyridin-2-yl)-1H-imidazol-2-yl)methyl)-2-fluoroaniline]
- reduction of IL-6 staining area compared with G2 group (interleukin 6 (IL-6)): 23.0%
- IL-6 (Area %) (interleukin 6 (IL-6); mean and standard error): 9.7 ± 2.9 Area %
- Edema score (mean) ([4]; DSS 2% mice, oral twice a day, 5 days a week, 6 weeks, bentonite 106.8, vactosertib 20.0, complex 126.8 mg/kg, 1 point scale): 0.3
- Fibrosis score (mean) [4, 5]: 1.5
- Ulcer score (mean) [4, 5]: 0.9
- Crypt cell damage score (mean) ([4]; DSS 2% mice, oral twice a day, 5 days a week, 6 weeks, bentonite 106.8, vactosertib 20.0, complex 126.8 mg/kg, 4 point scale): 2
- Inflammation score (mean) ([4]; DSS 2% mice, oral twice a day, 5 days a week, 6 weeks, bentonite 106.8, vactosertib 20.0, complex 126.8 mg/kg, 5 point scale): 3.6
- median of inflammation index compared with the positive control group (G2) ([4]; FIG. 15, Dunn's test): slightly low in a median of an inflammation index
- median of crypt cell damage index compared with the positive control group (G2) ([4]; FIG. 16, Dunn's test): low in a median of a crypt cell damage index, but had no statistical significance
- median of ulcer index compared with the positive control group (G2) ([4]; FIG. 17, Dunn's test): low in a median of an ulcer index, but had no statistical significance
- median of fibrosis index compared with the positive control group (G2) ([4]; FIG. 19, Dunn's test): slightly low in a median of a fibrosis index
- median of summed severity scores (inflammation, crypt cell damage, ulcer, edema) compared with the positive control group (G2) ([4]; FIG. 20, Dunn's test): low in a median of an ulcer index, but had no statistical significance
- Histopathologic total score (mean) ([4]; sum of inflammation, crypt cell damage, ulcer, edema (fibrosis excluded), same dosing): 6.8
